Values of other authors as cited in publication PMC6673652 (Nature protocols, 2018).
Where two headings read alike, the source gives them in different places.

How the values were obtained:
[1] = Cy5.5-labeled peptide, 5 μM, 3 hrs, previously tested

Molecule	BBB penetration in vivo (in vivo)	BBB organoid permeability (BBB organoids)	other results
Nc1cc(C(F)(F)F)c(-c2cc(N3CCOCC3)nc(N3CCOCC3)n2)cn1 [BKM120]			BBB crossing as known from literature: known to cross the BBB
CC(C)(C)c1nc(-c2cccc(NS(=O)(=O)c3c(F)cccc3F)c2F)c(-c2ccnc(N)n2)s1 [Dabrafenib]			BBB penetration as known from literature: limited BBB penetration
TFFYGGSRGKRNNFKTEEY [Angiopep-2]	Yes[6],[29]	High	BBB crossing as known from literature (in vivo): known to cross the BBB via receptor mediated transcytosis
ZVRLPPPVRLPPPVRLPPP [SAP]		High	
ZRQVTIWFQNRRVKEKK [HoxA-13]	Yes [6]	Very high	
ZRRRRRRRR [Polyarginine]		High	
ZRGGRLSYSRRRFSTSTGR [SynB1]	Yes [31]		
ZSQIKIWFQNKRAKIKK [Engrailed-2]		Very high	
ZPPRPPRPPRPPRPPR [(PPR)5]		High	
ZAGYLLGKINLKALAALAKKIL [Transportan 10]			BBB organoid permeability (BBB organoids; [1]): High
ZVSALK [Bip(2)]	Yes [6]	Very high	
ZRKKRRQRRR [HIV-1 Tat]			BBB penetration in vivo: Yes [31]; BBB organoid permeability (BBB organoids; [1]): High
ZVPALR [Bip(1)]	Yes [6]	Very high	
ZPLSSIFSRIGDP [PreS2-TLM]			BBB organoid permeability (BBB organoids; [1]): High
ZRQIKIWFQNRRMKWKK [Penetratin]	Yes [31]	High	
ZPPRPPRPPR [(PPR)3]		High	
ZVELPPPVELPPPVELPPP [SAP(E)]		High	

Second part, led by results:

BBB penetration in vivo (in vivo)	BBB organoid permeability (BBB organoids)	Molecule	other results
	High	ZLYKKGPAKKGRPPLRGWFH [SVM4]	
	High	ZVKRGLKLRHVRPRVTRMDV [DPV1047]	
Yes [6]	Very high	ZLRRERQSRLRRERQSR [DPV15]	
	High	ZHARIKPTFRRLKWKYKGKFW [L-2]	
	High	ZKGTYKKKLMRIPLKGT [SVM3]	
